The text below walks through data of PubChem BioAssay (NCI).

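Five compound concentrations were applied to cells in 96-well plates for 48 hours; endpoints were derived by simple linear interpolation of the resulting dose-response curve. TGI denotes the concentration required for complete inhibition of growth.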

Test systems include SF-539 CNS; MDA-MB-435; SNB-75 CNS; UACC-62 melanoma; MDA-N; CAKI-1 renal; OVCAR-4 ovarian; A549 NSCLC; K-562 leukemia; OVCAR-8 ovarian; SW-620 colon; LOX IMVI melanoma; NCI-H460 lung; SK-MEL-2 melanoma; UACC-257 melanoma; IGROV1 ovarian; 786-0 renal.
Holding throughout (assay): NCI anticancer screen, dose series, 48 h

Consider `CCN(CC)c1ccc2cc(-c3nnc(-c4ccccc4)o3)c(=O)oc2c1`, for which the TGI in the test on SF-539 CNS is greater than 37.5 µM; with MDA-MB-435, greater than 100 µM; in the test with SNB-75 CNS it was 69 µM; in the test with UACC-62 melanoma it was greater than 100 µM; in the test with MDA-N, greater than 100 µM; in the test on CAKI-1 renal it was greater than 100 µM. For the same compound, the TGI in the test on OVCAR-4 ovarian was greater than 100 µM; with A549 NSCLC, greater than 100 µM; in the test with K-562 leukemia, greater than 100 µM; in the test on OVCAR-8 ovarian, 98.4 µM; with SW-620 colon, greater than 100 µM; in the test with LOX IMVI melanoma it was greater than 100 µM. The TGI with NCI-H460 lung was greater than 51.3 µM; in the test with SK-MEL-2 melanoma, greater than 87.2 µM; in the test on UACC-257 melanoma, greater than 100 µM; in the test with IGROV1 ovarian, greater than 80.8 µM; with 786-0 renal, greater than 82.1 µM.

Take `C#CCn1ncc2c(SCc3ccccc3)ncnc21`: the TGI with SF-539 CNS, in the test on MDA-MB-435, with SNB-75 CNS, with UACC-62 melanoma, with MDA-N and with CAKI-1 renal was greater than 100 µM in each case. In addition, the TGI in the test on OVCAR-4 ovarian, in the test with A549 NSCLC, with K-562 leukemia, in the test on OVCAR-8 ovarian, in the test on SW-620 colon and in the test on LOX IMVI melanoma was greater than 100 µM in each case. Moreover, the TGI with NCI-H460 lung, in the test on SK-MEL-2 melanoma, in the test with UACC-257 melanoma, with IGROV1 ovarian and with 786-0 renal was greater than 100 µM throughout.
